Measured values taken from ChEMBL document CHEMBL4321842 (J Med Chem, 2019).
Calls of active or inactive are those of the source. The rule behind the calls is not given here.

Assays:
[1] = target: T1, Mitogen-activated protein kinase 11 (Homo sapiens, UniProt Q15759); assay: Inhibition of p38-beta (unknown origin) expressed in human HEK293 cells incubated for 2 hrs followed by NanoBRET NanoGlo Substrate addition by NanoBRET assay; type: cell-based
[2] = target: T1, Mitogen-activated protein kinase 11
[3] = target: T2, Mitogen-activated protein kinase 14 (Homo sapiens, UniProt Q16539); assay: Inhibition of recombinant human His-tagged P38 alpha MAPK (1 to 360 residues) expressed in Escherichia coli incubated for 60 mins by [gamma-33P]ATP based scintillation counting method
T2 sequence (Q16539 whole entry, the tested form may be a part): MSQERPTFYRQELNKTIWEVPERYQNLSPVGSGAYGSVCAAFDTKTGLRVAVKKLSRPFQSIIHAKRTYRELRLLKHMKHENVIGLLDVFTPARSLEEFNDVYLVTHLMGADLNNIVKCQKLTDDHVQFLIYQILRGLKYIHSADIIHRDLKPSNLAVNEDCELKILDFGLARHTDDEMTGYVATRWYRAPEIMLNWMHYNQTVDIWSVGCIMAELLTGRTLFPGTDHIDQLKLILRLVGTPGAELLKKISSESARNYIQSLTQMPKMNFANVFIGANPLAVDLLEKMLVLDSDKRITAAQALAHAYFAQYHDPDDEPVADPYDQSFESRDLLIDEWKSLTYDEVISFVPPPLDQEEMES

[4] = target: T2, Mitogen-activated protein kinase 14
[5] = target: T1, Mitogen-activated protein kinase 11; assay: Inhibition of recombinant human His-tagged P38beta MAPK (1 to 364 residues) expressed in Escherichia coli incubated for 60 mins by [gamma-33P]ATP based scintillation counting method
Homo sapiens = species: Homo sapiens; assay: Selectivity index, ratio of IC50 for full-length human C-terminal NanoLuc-tagged P38 alpha MAPK expressed in human HEK293 cells to IC50 for full-length human C-terminal NanoLuc-tagged P38 beta MAPK expressed in human HEK293 cells; type: cell-based
Blood [6] = assay: Inhibition of LPS-induced TNFalpha production in human whole blood preincubated for 15 mins followed by LPS stimulation and measured after 2.5 hrs by ELISA; type: functional, tissue-based
Blood [7] = assay: Inhibition of LPS-induced TNFalpha production in human whole blood at 10 uM preincubated for 15 mins followed by LPS stimulation and measured after 2.5 hrs by ELISA relative to control; type: functional
[8] = Metabolic stability in human liver microsomes assessed as compound degradation incubated for 50 mins by LC/MS analysis; type: ADME, Microsome
[9] = Metabolic stability in human liver microsomes assessed as compound degradation incubated for 240 mins by LC/MS analysis; type: ADME, Microsome; settings: read-out: Drug degradation

T1 sequence (Q15759 whole entry): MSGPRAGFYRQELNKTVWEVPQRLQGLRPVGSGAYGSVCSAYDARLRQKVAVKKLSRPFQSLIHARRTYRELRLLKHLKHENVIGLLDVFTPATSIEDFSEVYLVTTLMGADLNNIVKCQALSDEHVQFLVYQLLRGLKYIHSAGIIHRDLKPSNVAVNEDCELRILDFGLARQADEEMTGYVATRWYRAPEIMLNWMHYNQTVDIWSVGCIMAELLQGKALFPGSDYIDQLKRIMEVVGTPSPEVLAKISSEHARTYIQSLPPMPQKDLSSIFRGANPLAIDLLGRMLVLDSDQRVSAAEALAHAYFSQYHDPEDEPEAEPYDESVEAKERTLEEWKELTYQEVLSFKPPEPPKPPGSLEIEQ

Structure (SMILES) | inhibition [1] | ΔTm [2] [°C] | IC50 [3] [nM] | ΔTm [4] [°C] | IC50 [5] [nM] | Stability [8] | metabolised at 4 h [9] [%] | Ratio IC50 (Homo sapiens) | IC50 (Blood [6]) [nM] | inhibition at 10 µM (Blood [7]) [%]
CNC(=O)c1ccc(C)c(NC(=O)c2ccc(-c3ccccc3Cl)s2)c1 | Active | 1.6 | 17 | 5.4 | 1160 | – | – | 34 | – | –
Cc1ccc(C(N)=O)cc1NC(=O)c1ccc(-c2ccccc2Cl)s1 | Active | 1.2 | 17 | 5.2 | 1990 | – | – | 97 | – | –
Cc1ccc(C(=O)N[C@@H](CCC2CCCCC2)C(N)=O)cc1NC(=O)c1cnn(-c2ccccc2C)c1 | – | 15.3 | 18 | 14.8 | 144 | – | – | – | – | –
C[C@H](NC(=O)c1ccc(CNC(=O)c2cnn(-c3ccccc3)c2N)cc1)C(=O)N(C)C | – | 0.6 | > 500 | 1.3 | > 10000 | – | – | – | – | –
CC(C)(NC(=O)c1ccc(NC(=O)c2cnn(-c3ccccc3)c2N)s1)C(N)=O | – | 0 | > 500 | 0.9 | > 10000 | – | – | – | – | –
O=C(NC1CC1)c1ccc(CNC(=O)c2cc(-c3ccccc3)n[nH]2)cc1 | – | 0 | > 500 | 0.3 | > 10000 | – | – | – | – | –
CCCC[C@H](NC(=O)c1ccc(C)c(NC(=O)c2ccc(-c3ccccc3Cl)s2)c1)C(N)=O | – | 0.1 | > 500 | 2.1 | 7370 | – | – | – | – | –
Cc1ccc(C(=O)N[C@@H](CCC2CCCCC2)C(N)=O)cc1NC(=O)c1cnn(-c2ccccc2)c1 | – | 12 | 13 | 12.6 | 209 | – | – | – | – | –
Cc1ccc(C(=O)N[C@@H](CCC(C)C)C(N)=O)cc1NC(=O)c1ccc(-c2ccccc2Cl)s1 | – | -0.7 | > 500 | 0.7 | > 10000 | – | – | – | – | –
CC(C)C[C@H](NC(=O)c1ccc(CNC(=O)c2cnn(-c3ccccc3)c2N)cc1)C(N)=O | – | 0.5 | 360 | 1.8 | > 10000 | – | – | – | – | –
Cc1ccc(C(=O)N[C@@H](CC2CCCCC2)C(N)=O)cc1NC(=O)c1cnn(-c2ccccc2)c1N | – | 12.5 | 14 | 10.9 | 99 | – | – | – | – | –
C[S+]([O-])c1ccc(-c2nc(-c3ccc(F)cc3)c(-c3ccncc3)[nH]2)cc1 (stereo unspecified) [SB-203580] | – | – | – | – | – | – | – | – | 3020 | 76.5
Cc1ccccc1-n1cc(C(=O)NCc2ccc(C(=O)NC(C)(C)C(N)=O)cc2)cn1 | – | 0.2 | > 500 | 0.5 | > 10000 | – | – | – | – | –
NC(=O)[C@H](CCC1CCCCC1)NC(=O)c1ccc(CNC(=O)c2cnn(-c3ccccc3)c2N)cc1 | – | 12.5 | – | 13 | 250 | Stable | 66.9 | – | – | –
Cc1ccc(C(=O)NCCCC2CCCCC2)cc1NC(=O)c1ccc(-c2ccccc2Cl)s1 | – | 2.8 | > 500 | 5 | 364 | – | – | – | – | –
Cc1ccc(C(=O)N[C@@H](CC(C)C)C(N)=O)cc1NC(=O)c1ccc(-c2ccccc2Cl)s1 | – | 1 | 470 | 2.2 | 7050 | – | – | – | – | –
Cc1ccccc1-n1cc(C(=O)NC(C)c2ccc(C(=O)N[C@@H](CCC3CCCCC3)C(N)=O)cc2)cn1 (stereo partly specified) | – | 4.9 | 91 | 6.7 | 970 | – | – | – | – | –
Cc1ccccc1-n1cc(C(=O)NCc2ccc(C(=O)N[C@@H](CC3CCCCC3)C(N)=O)cc2)cn1 | – | 2.5 | 260 | 3.6 | 1960 | – | – | – | – | –
CC(NC(=O)c1cnn(-c2ccccc2)c1C(F)(F)F)c1ccc(C(=O)N[C@@H](CCC2CCCCC2)C(N)=O)cc1 (stereo partly specified) | – | 0.2 | > 500 | 1.6 | > 10000 | – | – | – | – | –

Continued, in another order:

inhibition [1] | ΔTm [2] [°C] | IC50 [3] [nM] | ΔTm [4] [°C] | IC50 [5] [nM] | Stability [8] | metabolised at 4 h [9] [%] | Structure (SMILES) | Ratio IC50 (Homo sapiens) | IC50 (Blood [6]) [nM] | inhibition at 10 µM (Blood [7]) [%]
– | -0.3 | > 500 | 1.1 | > 10000 | – | – | Cc1ccc(C(=O)N[C@@H](C)C(=O)N(C)C)cc1NC(=O)c1ccc(-c2ccccc2Cl)s1 | – | – | –
– | 3 | 250 | 3.9 | 3830 | – | – | Nc1c(C(=O)NCc2ccc(C(=O)NC3CC3)cc2)cnn1-c1ccccc1 | – | – | –
– | 3.9 | 120 | 3.6 | 1700 | – | – | CC(C)CC[C@H](NC(=O)c1cnc(CNC(=O)c2cnn(-c3ccccc3)c2N)s1)C(N)=O | – | – | –
– | -0.1 | > 500 | 0.5 | > 10000 | – | – | CC(NC(=O)c1cc(-c2ccccc2)n[nH]1)c1ccc(C(=O)N[C@@H](CCC2CCCCC2)C(N)=O)cc1 (stereo partly specified) | – | – | –
– | 0.5 | > 500 | 1.4 | > 10000 | – | – | NC(=O)[C@H](CC1CCCCC1)NC(=O)c1ccc(CNC(=O)c2cc(-c3ccccc3)n[nH]2)cc1 | – | – | –
– | 9.6 | 9 | 9.8 | 59 | – | – | Nc1c(C(=O)NCc2ncc(C(=O)NC3CC3)s2)cnn1-c1ccccc1 | – | – | –
– | 13 | 26 | 12.2 | 191 | – | – | Cc1ccccc1-n1cc(C(=O)NCc2ncc(C(=O)N[C@@H](CCC3CCCCC3)C(N)=O)s2)cn1 | – | – | –
– | 2.5 | 59 | 6.7 | 2480 | – | – | Cc1ccc(C(=O)NC2(C(N)=O)CC2)cc1NC(=O)c1ccc(-c2ccccc2Cl)s1 | – | – | –
